For 15 molecules, Activity, Emax and EC50 results are on record in ChEMBL document CHEMBL5584351.

Active and inactive are the calls of the source. No cut-off for these calls is given here. A value given as a limit tells only on which side of the number the result lay.

One series concerns HepG2. The experiment in a line: Agonist activity at LXR in human HepG2 cells assessed as upregulation of SREBF1 mRNA expression at 10 uM incubated for 24 hrs by qPCR analysis. It is filed as cell-based. To be noted: filed as agonist.
Series [1] deals with Phospholipid-transporting ATPase ABCA1 (Mus musculus) (UniProt P41233). As to the kind of experiment: Activation of ABCA1 in mouse J774.2 cells assessed as increase in fluorescent-tagged cholesterol efflux at 1 uM incubated for 24 hrs by BODIPY based fluorescence analysis. Type of series: cell-based. The following applies: filed as activator.
For series [2], the target named is T1, Bile acid receptor (Homo sapiens) (UniProt Q96RI1).
T1 sequence (whole entry): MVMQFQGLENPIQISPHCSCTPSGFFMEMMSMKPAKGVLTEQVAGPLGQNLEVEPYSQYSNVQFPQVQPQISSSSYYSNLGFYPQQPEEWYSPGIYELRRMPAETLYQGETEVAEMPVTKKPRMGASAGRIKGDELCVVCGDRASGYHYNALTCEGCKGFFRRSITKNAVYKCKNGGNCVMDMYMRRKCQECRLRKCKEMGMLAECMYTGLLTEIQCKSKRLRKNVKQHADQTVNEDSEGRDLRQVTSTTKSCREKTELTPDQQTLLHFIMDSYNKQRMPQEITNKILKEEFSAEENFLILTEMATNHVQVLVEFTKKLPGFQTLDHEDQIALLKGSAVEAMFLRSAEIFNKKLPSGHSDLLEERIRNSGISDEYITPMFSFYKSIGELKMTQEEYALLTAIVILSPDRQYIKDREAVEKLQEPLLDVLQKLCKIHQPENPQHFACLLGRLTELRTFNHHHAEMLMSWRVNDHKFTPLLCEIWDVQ
As to the kind of experiment: Agonist activity at FXR LBD (unknown origin) transfected in HEK293T cells by measuring maximal efficacy incubated for 16 hrs by Gal4-reporter gene based luciferase assay. Type of series: cell-based.

The target in series [3] is Phospholipid-transporting ATPase ABCA1 (Homo sapiens, UniProt O95477). The experiment in a line: Activation of ABCA1 (unknown origin).
Series [4] is described as follows: Toxicity in wild type C57BL/6 mouse assessed as change in ABCA1 protein expression in brain at 10 mg/kg,po administrated for 7 days by immunoblotting analysis. The following applies: in vivo, 168 h, time 7 day. It is filed as organism-based. On the technique in general: Immunoblotting shows a protein as a band on a membrane.
Series [5] concerns the target T2, Oxysterols receptor LXR-alpha (Homo sapiens, UniProt Q13133).
T2 sequence (Q13133 whole entry): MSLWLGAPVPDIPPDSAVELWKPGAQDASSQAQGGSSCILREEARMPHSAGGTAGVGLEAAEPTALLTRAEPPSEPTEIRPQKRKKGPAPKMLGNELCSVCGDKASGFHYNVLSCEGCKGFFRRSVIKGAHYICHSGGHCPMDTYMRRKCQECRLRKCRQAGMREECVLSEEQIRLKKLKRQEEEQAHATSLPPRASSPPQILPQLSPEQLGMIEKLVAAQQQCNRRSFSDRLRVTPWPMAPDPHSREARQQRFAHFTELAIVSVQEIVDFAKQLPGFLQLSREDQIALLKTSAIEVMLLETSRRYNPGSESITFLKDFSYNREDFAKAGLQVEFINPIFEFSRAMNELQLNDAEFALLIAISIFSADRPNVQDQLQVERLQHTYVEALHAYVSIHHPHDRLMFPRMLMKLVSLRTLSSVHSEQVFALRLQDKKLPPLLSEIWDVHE
As to the kind of experiment: Agonist activity at GST tagged LXRalpha (unknown origin) using SRC1 as coactivator peptide incubated for 1 hr by coactivator recruitment based TR-FRET assay.

In series [6] the target is T3, Oxysterols receptor LXR-beta (Homo sapiens, UniProt P55055).
T3 sequence (P55055 whole entry): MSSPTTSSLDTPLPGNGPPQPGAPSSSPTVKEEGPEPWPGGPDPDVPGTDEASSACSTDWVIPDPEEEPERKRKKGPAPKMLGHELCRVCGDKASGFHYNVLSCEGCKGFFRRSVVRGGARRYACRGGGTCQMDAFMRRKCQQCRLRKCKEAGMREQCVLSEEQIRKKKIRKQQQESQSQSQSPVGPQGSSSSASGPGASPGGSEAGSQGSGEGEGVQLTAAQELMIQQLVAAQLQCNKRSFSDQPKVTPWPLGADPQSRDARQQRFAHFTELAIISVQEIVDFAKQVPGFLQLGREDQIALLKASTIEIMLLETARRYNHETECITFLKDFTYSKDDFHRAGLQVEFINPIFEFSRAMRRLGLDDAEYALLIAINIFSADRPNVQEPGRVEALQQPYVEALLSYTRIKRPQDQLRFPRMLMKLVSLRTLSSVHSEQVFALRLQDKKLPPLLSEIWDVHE
The experiment in a line: Agonist activity at GST tagged LXRbeta (unknown origin) using SRC1 as coactivator peptide incubated for 1 hr by coactivator recruitment based TR-FRET assay. For orientation: TR-FRET usually uses a lanthanide donor and a delayed reading to cut background.

Sequence of Phospholipid-transporting ATPase ABCA1 (Mus musculus) (P41233 whole entry): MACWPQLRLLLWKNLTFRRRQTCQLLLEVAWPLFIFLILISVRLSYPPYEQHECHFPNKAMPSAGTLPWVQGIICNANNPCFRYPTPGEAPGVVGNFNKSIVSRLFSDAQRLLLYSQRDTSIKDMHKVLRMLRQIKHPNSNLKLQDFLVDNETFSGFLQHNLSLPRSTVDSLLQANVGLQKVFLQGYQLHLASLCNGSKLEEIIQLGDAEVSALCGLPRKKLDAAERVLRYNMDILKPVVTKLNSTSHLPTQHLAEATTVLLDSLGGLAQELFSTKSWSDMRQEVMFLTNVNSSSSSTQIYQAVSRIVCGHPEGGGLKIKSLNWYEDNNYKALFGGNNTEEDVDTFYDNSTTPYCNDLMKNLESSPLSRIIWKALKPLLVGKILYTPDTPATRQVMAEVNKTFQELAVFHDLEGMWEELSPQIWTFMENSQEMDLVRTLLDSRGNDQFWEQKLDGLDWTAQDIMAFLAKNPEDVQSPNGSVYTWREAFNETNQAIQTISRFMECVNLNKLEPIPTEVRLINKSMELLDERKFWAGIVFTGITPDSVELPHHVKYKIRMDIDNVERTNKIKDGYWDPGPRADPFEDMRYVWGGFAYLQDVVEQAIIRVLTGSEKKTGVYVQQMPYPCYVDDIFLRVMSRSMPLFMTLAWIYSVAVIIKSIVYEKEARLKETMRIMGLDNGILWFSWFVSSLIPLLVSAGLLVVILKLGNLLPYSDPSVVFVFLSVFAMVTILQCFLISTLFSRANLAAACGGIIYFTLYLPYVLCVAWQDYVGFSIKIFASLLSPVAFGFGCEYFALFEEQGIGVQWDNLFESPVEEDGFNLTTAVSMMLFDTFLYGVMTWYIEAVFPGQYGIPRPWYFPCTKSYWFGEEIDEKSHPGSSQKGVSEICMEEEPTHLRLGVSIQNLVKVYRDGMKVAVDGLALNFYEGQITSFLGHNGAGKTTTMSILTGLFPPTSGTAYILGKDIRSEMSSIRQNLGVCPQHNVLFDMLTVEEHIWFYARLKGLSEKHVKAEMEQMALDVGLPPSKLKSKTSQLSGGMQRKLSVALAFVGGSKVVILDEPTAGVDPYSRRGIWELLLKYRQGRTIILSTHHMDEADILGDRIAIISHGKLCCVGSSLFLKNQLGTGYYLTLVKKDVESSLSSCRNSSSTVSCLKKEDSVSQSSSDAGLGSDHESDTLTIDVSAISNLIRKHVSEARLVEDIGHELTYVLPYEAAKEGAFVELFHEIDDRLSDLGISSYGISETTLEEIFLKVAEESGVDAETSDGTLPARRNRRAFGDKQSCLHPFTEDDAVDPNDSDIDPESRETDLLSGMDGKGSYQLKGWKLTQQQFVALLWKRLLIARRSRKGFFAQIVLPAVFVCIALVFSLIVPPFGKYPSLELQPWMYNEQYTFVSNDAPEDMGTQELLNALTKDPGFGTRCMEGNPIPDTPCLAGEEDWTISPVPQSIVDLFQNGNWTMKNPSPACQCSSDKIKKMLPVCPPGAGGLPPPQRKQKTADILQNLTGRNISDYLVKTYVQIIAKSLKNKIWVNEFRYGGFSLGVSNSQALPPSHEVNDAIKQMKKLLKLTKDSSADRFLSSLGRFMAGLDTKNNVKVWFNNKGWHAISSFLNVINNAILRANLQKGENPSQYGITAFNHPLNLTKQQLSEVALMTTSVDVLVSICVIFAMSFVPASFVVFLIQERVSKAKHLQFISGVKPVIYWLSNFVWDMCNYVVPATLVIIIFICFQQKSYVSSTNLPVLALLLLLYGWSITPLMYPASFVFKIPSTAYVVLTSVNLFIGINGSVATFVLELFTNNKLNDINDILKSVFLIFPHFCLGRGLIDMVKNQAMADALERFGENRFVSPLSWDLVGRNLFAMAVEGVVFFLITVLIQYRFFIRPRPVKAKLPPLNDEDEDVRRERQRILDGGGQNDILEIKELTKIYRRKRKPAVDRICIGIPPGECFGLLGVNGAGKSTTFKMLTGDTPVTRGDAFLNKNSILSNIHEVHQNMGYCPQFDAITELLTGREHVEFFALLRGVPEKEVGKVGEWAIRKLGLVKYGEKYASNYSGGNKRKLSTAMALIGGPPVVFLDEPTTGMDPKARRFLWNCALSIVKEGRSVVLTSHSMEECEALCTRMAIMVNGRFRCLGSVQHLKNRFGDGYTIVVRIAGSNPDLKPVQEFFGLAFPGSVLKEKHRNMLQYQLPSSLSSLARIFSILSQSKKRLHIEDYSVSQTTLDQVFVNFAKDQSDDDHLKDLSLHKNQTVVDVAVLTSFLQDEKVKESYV
Sequence of Phospholipid-transporting ATPase ABCA1 (O95477 whole entry): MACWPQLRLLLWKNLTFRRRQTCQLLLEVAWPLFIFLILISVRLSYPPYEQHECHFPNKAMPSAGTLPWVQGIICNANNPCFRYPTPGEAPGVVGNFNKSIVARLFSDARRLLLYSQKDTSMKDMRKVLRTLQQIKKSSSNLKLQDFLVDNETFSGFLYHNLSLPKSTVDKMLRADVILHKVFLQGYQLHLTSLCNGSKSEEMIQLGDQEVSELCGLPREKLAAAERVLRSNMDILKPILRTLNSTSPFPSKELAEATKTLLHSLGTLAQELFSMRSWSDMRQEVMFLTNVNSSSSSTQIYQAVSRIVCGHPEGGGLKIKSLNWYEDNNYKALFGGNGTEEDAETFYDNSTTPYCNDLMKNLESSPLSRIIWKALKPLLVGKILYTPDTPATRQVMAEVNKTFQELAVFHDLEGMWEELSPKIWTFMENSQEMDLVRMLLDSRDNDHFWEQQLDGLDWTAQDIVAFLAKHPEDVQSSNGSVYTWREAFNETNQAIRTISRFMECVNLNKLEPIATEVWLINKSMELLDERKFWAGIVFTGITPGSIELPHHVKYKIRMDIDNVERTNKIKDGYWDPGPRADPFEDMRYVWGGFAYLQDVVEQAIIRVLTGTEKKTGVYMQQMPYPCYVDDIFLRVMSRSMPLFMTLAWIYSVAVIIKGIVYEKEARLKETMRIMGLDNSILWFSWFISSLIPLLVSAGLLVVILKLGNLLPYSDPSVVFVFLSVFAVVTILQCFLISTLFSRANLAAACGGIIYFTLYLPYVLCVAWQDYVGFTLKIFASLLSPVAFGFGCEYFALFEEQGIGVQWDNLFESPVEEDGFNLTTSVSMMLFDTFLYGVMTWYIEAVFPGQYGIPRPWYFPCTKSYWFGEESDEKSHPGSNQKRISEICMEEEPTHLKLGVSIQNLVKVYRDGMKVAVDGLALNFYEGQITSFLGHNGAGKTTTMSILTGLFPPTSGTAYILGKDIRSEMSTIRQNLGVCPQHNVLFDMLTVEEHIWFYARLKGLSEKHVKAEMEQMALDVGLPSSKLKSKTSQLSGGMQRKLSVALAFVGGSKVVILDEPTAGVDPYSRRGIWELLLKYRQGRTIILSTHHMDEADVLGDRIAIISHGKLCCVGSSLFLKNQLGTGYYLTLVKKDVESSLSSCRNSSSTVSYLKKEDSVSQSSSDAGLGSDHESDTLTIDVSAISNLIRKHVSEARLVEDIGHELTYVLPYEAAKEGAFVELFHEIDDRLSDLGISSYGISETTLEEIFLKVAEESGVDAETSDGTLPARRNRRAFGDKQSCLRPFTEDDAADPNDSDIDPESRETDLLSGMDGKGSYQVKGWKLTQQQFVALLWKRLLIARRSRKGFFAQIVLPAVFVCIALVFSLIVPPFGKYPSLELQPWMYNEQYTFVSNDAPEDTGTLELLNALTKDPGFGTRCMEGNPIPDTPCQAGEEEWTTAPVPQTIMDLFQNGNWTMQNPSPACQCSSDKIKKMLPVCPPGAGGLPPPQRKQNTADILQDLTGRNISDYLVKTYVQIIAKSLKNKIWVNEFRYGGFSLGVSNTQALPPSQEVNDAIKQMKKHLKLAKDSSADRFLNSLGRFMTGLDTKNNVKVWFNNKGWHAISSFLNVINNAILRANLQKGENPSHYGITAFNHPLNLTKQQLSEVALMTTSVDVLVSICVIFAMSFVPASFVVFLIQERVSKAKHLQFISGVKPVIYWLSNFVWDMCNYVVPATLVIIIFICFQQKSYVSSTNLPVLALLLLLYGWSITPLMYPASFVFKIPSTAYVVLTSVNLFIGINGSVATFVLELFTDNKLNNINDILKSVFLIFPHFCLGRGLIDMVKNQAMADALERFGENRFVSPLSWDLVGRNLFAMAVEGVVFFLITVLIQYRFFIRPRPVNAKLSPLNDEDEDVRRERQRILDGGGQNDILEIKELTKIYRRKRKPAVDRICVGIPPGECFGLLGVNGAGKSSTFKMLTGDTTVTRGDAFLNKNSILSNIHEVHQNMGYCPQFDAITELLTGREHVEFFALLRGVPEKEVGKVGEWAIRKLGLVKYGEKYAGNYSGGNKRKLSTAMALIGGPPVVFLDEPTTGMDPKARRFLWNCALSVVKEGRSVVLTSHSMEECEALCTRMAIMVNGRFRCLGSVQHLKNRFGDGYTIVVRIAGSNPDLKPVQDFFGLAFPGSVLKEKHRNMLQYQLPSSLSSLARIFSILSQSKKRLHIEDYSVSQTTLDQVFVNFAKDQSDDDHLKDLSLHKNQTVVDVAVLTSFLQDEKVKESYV

Broadly, the Emax is the maximal effect, on the per cent scale that the assay sets. `O=S(=O)(c1ccccc1)N(CC(F)(F)F)c1ccc(C(O)(C(F)(F)F)C(F)(F)F)cc1`: the outcome (with HepG2; in series [1]) was Active. Moreover, in series [2], the maximal response (Emax) amounted to 35%. The EC50 is the concentration at which the effect is half-maximal. A low value points to an effect from little substance. In turn, `CN(CC(=O)Nc1ccc(F)c(F)c1F)C(=O)c1ccc2c(c1)OCCO2` returned an EC50 in series [3] of over 1 µM. Turning to `O=C(O)Cc1cccc(OCCCN(Cc2cccc(C(F)(F)F)c2Cl)CC(c2ccccc2)c2ccccc2)c1`, the Activity result in series [4] is listed as “Toxic”. In the case of `CCOc1ccc(N(C)S(=O)(=O)c2cc(Cl)sc2C(=O)Nc2cc(Cl)cc(C3OCCO3)c2)cc1OC`, the EC50 in series [5] turned out to be 15 µM; in series [6], 13 µM. In series [5], `CCOc1ccc(N(C)S(=O)(=O)c2cc(Cl)sc2C(=O)Nc2cccc(C(=O)OCCOCCOC)c2)cc1OCC` came in with an EC50 of over 25 µM. In series [6], `CCOc1ccc(N(C)S(=O)(=O)c2cc(Cl)sc2C(=O)Nc2cccc(C(=O)OCCOC)c2)cc1OCC` registered a concentration for a half-maximal effect (EC50) of 15 µM. `CCOc1ccc(N(C)S(=O)(=O)c2cc(Cl)sc2C(=O)Nc2cc(Cl)cc(C(=O)OCCOC)c2)cc1OC`: the half-maximal effective concentration (EC50) in series [6] amounted to 0.58 µM. For `CCOC(=O)c1cccc(-c2nnc(-c3sc(Cl)cc3S(=O)(=O)N(C)c3ccc(OCC)c(OC)c3)o2)c1`, the concentration for a half-maximal effect (EC50) in series [5] was over 25 µM.

For the molecule `CCOc1ccc(N(C)S(=O)(=O)c2cc(Cl)sc2C(=O)Nc2cc(Cl)cc(C(=O)OCCOCCOC)c2)cc1OC`, the half-maximal effective concentration (EC50) in series [5] is 1 µM. In series [6], `CCOc1ccc(N(C)S(=O)(=O)c2ccsc2C(=O)Nc2cccc(C(=O)OC)c2)cc1` returned an EC50 of over 25 µM. Take `CCOC(=O)c1cccc(NC(=O)c2sccc2S(=O)(=O)N(C)c2ccc(OCC)c(OCC)c2)c1`: the EC50 in series [5] amounted to 3.5 µM; in series [6] it was 4.5 µM. Taken in the same sequence, the figures for `CCOC(=O)c1cccc(NC(=O)c2sc(Cl)cc2S(=O)(=O)N(C)c2ccc(OCC)cc2)c1` were 4.8 µM and 13 µM. In series [5], `CCOC(=O)c1cccc(NC(=O)c2sc(Cl)cc2S(=O)(=O)N(C)c2ccc(OCC)c(OC)c2)c1` registered a concentration for a half-maximal effect (EC50) of 0.95 µM. In other words, the sub-micromolar range. Same read-out and setting: the result for `CCOC(=O)c1cccc(NC(=O)c2sc(Cl)cc2S(=O)(=O)N(C)c2ccc(N(C)C)cc2)c1` reads 11 µM. In series [6], `CCCOc1ccc(N(C)S(=O)(=O)c2ccsc2C(=O)Nc2cccc(C(=O)OCC)c2)cc1` had a 50% effective concentration (EC50) of 11 µM. This lies in the double-digit micromolar range.
